Reference: patent US10681909B2, “Herbicidal triazoles” (FMC Corporation, priority 2014, dated 2020)

What was measured:
barnyardgrass [1] = test: Test A preemergence; format: in vivo, Echinochloa crus-galli; details: 0 to 100 scale (0 no effect, 100 complete control)
Summary of the method: (§1)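 For preemergence, seeds were sown in a loam soil-sand blend and given a directed soil spray of test chemical in a non-phytotoxic solvent mixture with surfactant. For postemergence, plants in pots of the same blend were sprayed with the same formulation at the one- to two-leaf stage, 2 to 10 cm tall.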

barnyardgrass [2] = test: Test A postemergence; format: in vivo, Echinochloa crus-galli; details: 0 to 100 scale (0 no effect, 100 complete control), approx. 10 d
Summary of the method: as §1

foxtail, giant [3] = test: Test A postemergence; format: in vivo, Setaria faberii; details: 0 to 100 scale (0 no effect, 100 complete control), approx. 10 d
Summary of the method: as §1

pigweed = test: Test A postemergence; format: in vivo, Amaranthus retroflexus; details: 0 to 100 scale (0 no effect, 100 complete control), approx. 10 d
Summary of the method: as §1

wheat = test: Test A postemergence; format: in vivo, Triticum aestivum; details: 0 to 100 scale (0 no effect, 100 complete control), approx. 10 d
Summary of the method: as §1

corn [4] = test: Test A postemergence; format: in vivo, Zea mays; details: 0 to 100 scale (0 no effect, 100 complete control), approx. 10 d
Summary of the method: as §1

sedge, umbrella = test: Test B flooded paddy test; format: in vivo, Cyperus difformis; details: 250 g ai/ha, applied to paddy water at 2-leaf stage, visual rating after 13 to 15 d, scale 0 (no effect) to 100 (complete control)
Summary of the method: (§2)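 Pots were flooded to 3 cm above the soil at treatment, and compounds were applied directly into the paddy water. That depth was held throughout. After 13 to 15 d in a greenhouse, plants were rated visually against untreated controls.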

ducksalad = test: Test B flooded paddy test; format: in vivo, Heteranthera limosa; details: 250 g ai/ha, applied to paddy water at 2-leaf stage, visual rating after 13 to 15 d, scale 0 (no effect) to 100 (complete control)
Summary of the method: as §2

barnyardgrass [5] = test: Test B flooded paddy test; format: in vivo, Echinochloa crus-galli; details: 250 g ai/ha, applied to paddy water at 2-leaf stage, visual rating after 13 to 15 d, scale 0 (no effect) to 100 (complete control)
Summary of the method: as §2

ryegrass, Italian = test: Test C postemergence; format: in vivo, Lolium multiflorum
Summary of the method: (§3)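 Preemergence: seeds sown in loam soil–sand blend and treated with test chemicals formulated in a non-phytotoxic solvent mixture containing a surfactant. Postemergence: plants grown in peat moss/vermiculite-based medium and sprayed with the same formulation at 2 to 18 cm height (1- to 4-leaf stage).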

corn [6] = test: Test C postemergence; format: in vivo, Zea mays
Summary of the method: as §3

crabgrass, large = test: Test C postemergence; format: in vivo, Digitaria sanguinalis
Summary of the method: as §3

foxtail, giant [7] = test: Test C postemergence; format: in vivo, Setaria faberii
Summary of the method: as §3

morningglory = test: Test C postemergence; format: in vivo, Ipomoea coccinea
Summary of the method: as §3

nutsedge, yellow = test: Test C postemergence; format: in vivo, Cyperus esculentus
Summary of the method: as §3

ragweed = test: Test C postemergence; format: in vivo, Ambrosia elatior
Summary of the method: as §3

barnyardgrass [8] = test: Test C postemergence; format: in vivo, Echinochloa crus-galli
Summary of the method: as §3

oilseed rape = test: Test C postemergence; format: in vivo, Brassica napus
Summary of the method: as §3

waterhemp = test: Test C postemergence; format: in vivo, Amaranthus rudis
Summary of the method: as §3

velvetleaf = test: Test C postemergence; format: in vivo, Abutilon theophrasti
Summary of the method: as §3

kochia = test: Test C postemergence; format: in vivo, Kochia scoparia
Summary of the method: as §3

FC(F)(F)COc1nc(-c2ccccc2)nn1Cc1ccnc(C(F)(F)F)c1 [Compound 24]
Plant response rating, Barnyardgrass (barnyardgrass [1]; 125 g ai/ha): 50 | Plant response rating, Barnyardgrass (barnyardgrass [1]; 500 g ai/ha, approx. 10 d): 90 | Plant response rating, Barnyardgrass (barnyardgrass [2]; 125 g ai/ha): 30 | Plant response rating, Barnyardgrass (barnyardgrass [2]; 500 g ai/ha): 70 | Plant response rating, Foxtail, Giant (foxtail, giant [3]; 125 g ai/ha): 70 | Plant response rating, Foxtail, Giant (foxtail, giant [3]; 500 g ai/ha): 90 | Plant response rating, Pigweed (pigweed; 125 g ai/ha): 90 | Plant response rating, Pigweed (pigweed; 500 g ai/ha): 100 | Plant response rating, Wheat (wheat; 125 g ai/ha): 20 | Plant response rating, Wheat (wheat; 500 g ai/ha): 30 | Plant response rating, Corn (corn [4]; 125 g ai/ha): 20 | Plant response rating, Corn (corn [4]; 500 g ai/ha): 40 | Plant response rating, Sedge, Umbrella, Flood (sedge, umbrella): 85 | Plant response rating, Ducksalad, Flood (ducksalad): 30 | Plant response rating, Barnyardgrass, Flood (barnyardgrass [5]): 30 | Plant response rating (scale of 0 to 100 where 0 is no effect and 100 is complete control) (ryegrass, Italian; 31 g ai/ha): 5 | Plant response rating (scale of 0 to 100 where 0 is no effect and 100 is complete control) (ryegrass, Italian; 62 g ai/ha): 5 | Plant response rating (scale of 0 to 100 where 0 is no effect and 100 is complete control) (ryegrass, Italian; 125 g ai/ha): 20 | Plant response rating (scale of 0 to 100 where 0 is no effect and 100 is complete control) (ryegrass, Italian; 250 g ai/ha): 25 | Plant response rating (scale of 0 to 100 where 0 is no effect and 100 is complete control) (corn [6]; 31 g ai/ha): 20 | Plant response rating (scale of 0 to 100 where 0 is no effect and 100 is complete control) (corn [6]; 62 g ai/ha): 20 | Plant response rating (scale of 0 to 100 where 0 is no effect and 100 is complete control) (corn [6]; 125 g ai/ha): 25 | Plant response rating (scale of 0 to 100 where 0 is no effect and 100 is complete control) (corn [6]; 250 g ai/ha): 30 | Plant response rating (scale of 0 to 100 where 0 is no effect and 100 is complete control) (crabgrass, large; 31 g ai/ha): 15 | Plant response rating (scale of 0 to 100 where 0 is no effect and 100 is complete control) (crabgrass, large; 62 g ai/ha): 10 | Plant response rating (scale of 0 to 100 where 0 is no effect and 100 is complete control) (crabgrass, large; 125 g ai/ha): 25 | Plant response rating (scale of 0 to 100 where 0 is no effect and 100 is complete control) (crabgrass, large; 250 g ai/ha): 35 | Plant response rating (scale of 0 to 100 where 0 is no effect and 100 is complete control) (foxtail, giant [7]; 31 g ai/ha): 15 | Plant response rating (scale of 0 to 100 where 0 is no effect and 100 is complete control) (foxtail, giant [7]; 62 g ai/ha): 20 | Plant response rating (scale of 0 to 100 where 0 is no effect and 100 is complete control) (foxtail, giant [7]; 125 g ai/ha): 20 | Plant response rating (scale of 0 to 100 where 0 is no effect and 100 is complete control) (foxtail, giant [7]; 250 g ai/ha): 20 | Plant response rating (scale of 0 to 100 where 0 is no effect and 100 is complete control) (morningglory; 31 g ai/ha): 98 | Plant response rating (scale of 0 to 100 where 0 is no effect and 100 is complete control) (morningglory; 62 g ai/ha): 98 | Plant response rating (scale of 0 to 100 where 0 is no effect and 100 is complete control) (morningglory; 125 g ai/ha): 90 | Plant response rating (scale of 0 to 100 where 0 is no effect and 100 is complete control) (morningglory; 250 g ai/ha): 95 | Plant response rating (scale of 0 to 100 where 0 is no effect and 100 is complete control) (nutsedge, yellow; 31 g ai/ha): 15 | Plant response rating (scale of 0 to 100 where 0 is no effect and 100 is complete control) (nutsedge, yellow; 62 g ai/ha): 25 | Plant response rating (scale of 0 to 100 where 0 is no effect and 100 is complete control) (nutsedge, yellow; 125 g ai/ha): 20 | Plant response rating (scale of 0 to 100 where 0 is no effect and 100 is complete control) (nutsedge, yellow; 250 g ai/ha): 25 | Plant response rating (scale of 0 to 100 where 0 is no effect and 100 is complete control) (ragweed; 31 g ai/ha): 65 | Plant response rating (scale of 0 to 100 where 0 is no effect and 100 is complete control) (ragweed; 62 g ai/ha): 75 | Plant response rating (scale of 0 to 100 where 0 is no effect and 100 is complete control) (ragweed; 125 g ai/ha): 75 | Plant response rating (scale of 0 to 100 where 0 is no effect and 100 is complete control) (ragweed; 250 g ai/ha): 75 | Plant response rating (scale of 0 to 100 where 0 is no effect and 100 is complete control) (barnyardgrass [8]; 31 g ai/ha): 25 | Plant response rating (scale of 0 to 100 where 0 is no effect and 100 is complete control) (barnyardgrass [8]; 62 g ai/ha): 30 | Plant response rating (scale of 0 to 100 where 0 is no effect and 100 is complete control) (barnyardgrass [8]; 125 g ai/ha): 35 | Plant response rating (scale of 0 to 100 where 0 is no effect and 100 is complete control) (barnyardgrass [8]; 250 g ai/ha): 35 | Plant response rating (scale of 0 to 100 where 0 is no effect and 100 is complete control) (oilseed rape; Oilsee Rape, 250 g ai/ha): 85 | Plant response rating (scale of 0 to 100 where 0 is no effect and 100 is complete control) (oilseed rape; Oilseed Rape, 31 g ai/ha): 50 | Plant response rating (scale of 0 to 100 where 0 is no effect and 100 is complete control) (oilseed rape; Oilseed Rape, 62 g ai/ha): 80 | Plant response rating (scale of 0 to 100 where 0 is no effect and 100 is complete control) (oilseed rape; Oilseed Rape, 125 g ai/ha): 85 | Plant response rating (scale of 0 to 100 where 0 is no effect and 100 is complete control) (waterhemp; 31 g ai/ha): 100 | Plant response rating (scale of 0 to 100 where 0 is no effect and 100 is complete control) (waterhemp; 62 g ai/ha): 98 | Plant response rating (scale of 0 to 100 where 0 is no effect and 100 is complete control) (waterhemp; 125 g ai/ha): 98 | Plant response rating (scale of 0 to 100 where 0 is no effect and 100 is complete control) (waterhemp; 250 g ai/ha): 98 | Plant response rating (scale of 0 to 100 where 0 is no effect and 100 is complete control) (velvetleaf; 31 g ai/ha): 60 | Plant response rating (scale of 0 to 100 where 0 is no effect and 100 is complete control) (velvetleaf; 62 g ai/ha): 55 | Plant response rating (scale of 0 to 100 where 0 is no effect and 100 is complete control) (velvetleaf; 125 g ai/ha): 60 | Plant response rating (scale of 0 to 100 where 0 is no effect and 100 is complete control) (velvetleaf; 250 g ai/ha): 60 | Plant response rating (scale of 0 to 100 where 0 is no effect and 100 is complete control) (kochia; 31 g ai/ha): 90 | Plant response rating (scale of 0 to 100 where 0 is no effect and 100 is complete control) (kochia; 62 g ai/ha): 90 | Plant response rating (scale of 0 to 100 where 0 is no effect and 100 is complete control) (kochia; 125 g ai/ha): 90 | Plant response rating (scale of 0 to 100 where 0 is no effect and 100 is complete control) (kochia; 250 g ai/ha): 90
